Measured values reported in patent US20110053900A1, “PROGESTERONE ANTAGONISTS SUCH AS CDB-4124 IN THE TREATMENT OF BREAST CANCER” (Repros Therapeutics inc, priority 2008, published 2011).

What was measured:
glucocorticoid receptor = biological target: T1, glucocorticoid receptor (Homo sapiens, UniProt P04150); conditions: compared with parent CDB-4124; cited from earlier work
T1 sequence (P04150 1-777): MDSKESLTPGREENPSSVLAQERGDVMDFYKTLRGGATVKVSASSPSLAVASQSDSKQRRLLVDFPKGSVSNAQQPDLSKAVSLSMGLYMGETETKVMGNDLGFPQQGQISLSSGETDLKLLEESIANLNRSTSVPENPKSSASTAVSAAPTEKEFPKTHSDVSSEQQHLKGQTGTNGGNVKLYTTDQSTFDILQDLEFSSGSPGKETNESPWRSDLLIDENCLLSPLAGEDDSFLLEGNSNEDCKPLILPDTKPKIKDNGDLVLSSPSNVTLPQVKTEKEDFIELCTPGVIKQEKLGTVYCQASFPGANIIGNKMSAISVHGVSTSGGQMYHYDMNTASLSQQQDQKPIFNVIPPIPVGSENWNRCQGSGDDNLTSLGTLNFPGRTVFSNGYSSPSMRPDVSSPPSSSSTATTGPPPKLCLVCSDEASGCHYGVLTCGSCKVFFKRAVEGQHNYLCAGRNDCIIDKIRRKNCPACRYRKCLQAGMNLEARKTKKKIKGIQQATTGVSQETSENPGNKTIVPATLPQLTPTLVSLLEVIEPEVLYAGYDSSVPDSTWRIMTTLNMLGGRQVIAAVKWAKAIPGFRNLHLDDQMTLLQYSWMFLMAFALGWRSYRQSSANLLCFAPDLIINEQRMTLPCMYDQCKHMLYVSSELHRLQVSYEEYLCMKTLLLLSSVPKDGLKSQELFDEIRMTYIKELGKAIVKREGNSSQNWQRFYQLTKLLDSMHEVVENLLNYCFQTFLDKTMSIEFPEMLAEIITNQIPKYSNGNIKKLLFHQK

[1] = tested on: rabbit progesterone receptor (rbPR) and glucocorticoid receptor (rbGR); assay: Receptor-binding assays, ratio of relative binding affinities rbPR/rbGR; conditions: RBA = EC50 of standard/EC50 of test compound x 100
Protocol: (§1) Certain antiprogestins were tested in receptor-binding assays for their ability to bind rabbit progesterone receptor (rbPR) and glucocorticoid receptor (rbGR). Briefly, cytosol containing PR or GR were prepared in TEGMD buffer (10 mM Tris, pH 7.2, 1.5 mM EDTA, 0.2 mM sodium molybdate, 10% glycerol, 1 mM DTT) from uterus or thymus, respectively, of estradiol-primed immature rabbits. For PR binding, the cytosol was incubated with 6 nM 1,2-[^3H]progesterone (50.0 Ci/mmole) and competitors were added at concentrations from 2 to 100 nM. For binding to GR, the cytosol was incubated with 6 nM 6,7-[^3H]-dexamethasone (40 Ci/mmol) and test compounds were added at concentrations from 20 to 100 nM. After overnight incubation at 4° C., bound and unbound [^3H] steroids were separated by addition of dextran-coated charcoal and centrifugation at 2100×g for 15 min at 4
C. Supernatants containing the [3H]-steroid receptor complexes were decanted into vials containing 4 ml Optifluor (Packard Instrument Co.), vortexed, equilibrated in a liquid scintillation counter for 30 minutes and then counted for 2 minutes. The ECso (Effective Concentration) for each standard curve and each of the compound curves was determined by entering the counting data into a four parameter sigmoidal computer program (RiaSmart® Immunoassay Data Reduction Program, Packard Instrument Co., Meriden, Conn.). Relative binding affinity (RBA) for each compound was calculated using the following equation: EC50 of standard/EC50 of test compound×100. The standards for the PR and GR assays were unlabeled progesterone and dexamethasone, respectively. The results of these experiments are summarized in Table 1, as a ratio of the relative binding affinities of each compound for the rbPR and rbGR receptors (rbPR/rbGR).

Serum cortisol by ELISA = assay type: in vivo, rat; conditions: 10 mg/kg, 21 days of dosing
Protocol: (§2) The animals were assessed three times for their levels of progesterone: initially, when they were about to go on treatment; a second time after 21 days of treatment; and finally after treatment at sacrifice which was 2-4 days after the last s.c. injection. All blood samples were taken by heart puncture; serum was prepared and held frozen at −40° C. The levels of the steroid hormones progesterone, cortisol, and corticosterone were determined by ELISA.
(§3) The concentrations of steroid hormones were determined three times during the study: before the beginning of treatments, after 21 days of treatment and finally after treatment at sacrifice which was 2-4 days after the last s.c. injection. All samples were taken by heart puncture. Serum was obtained and held frozen at −40° C. The levels of steroid hormones were determined by ELISA.

[2] = Estrogenic, androgenic, anti-estrogenic and anti-androgenic activities
[3] = Estrogen levels in human females during administration; assay type: in vivo; conditions: administration periods of at least six months
rabbit uterus = assay: Anti-McGinty and anti-Clauberg assays; assay type: in vivo; conditions: in comparison to RU 486 and CDB-2914
Source text: Also given in the Table are the relative biological activities of the same compounds in the rabbit uterus by the anti-McGinty and anti-Clauberg assays. Compound CDB-2914 (listed at the end of the Table) was used as the control or reference compound (rabbit Biological Activity=1.00) for these experiments because results of experiments using CDB-2914 have been published before (Hild-Petito et al., 1996; Passaro et al., 1997; Reel et al., 1998; Lamer et al., 2000). For the anti-McGinty test, immature female rabbits received a subcutaneous injection of 5 μg estradiol in 10% ethanol/sesame oil daily for 6 consecutive days. On day 7, animals underwent sterile abdominal surgery to ligate a 3-4 cm segment of both uterine horns. The test compound in appropriate solvent was injected intraluminally into the ligated segment of one uterine horn and vehicle alone into the other. A stimulating dose of progesterone (267 μg/day) was administered subcutaneously to each rabbit daily for the next three days to induce endometrial proliferation. All animals were sacrificed at day 10 for removal of the uterus where a segment central to the ligatures was removed and fixed in 10% neutral buffered formalin and submitted for histological processing. Five micron sections stained with hematoxylin and cosin were evaluated microscopically for the degree of endometrial glandular proliferation. The percent inhibition of endometrial proliferation for each rabbit was calculated and the mean of the group of five animals recorded. For the Anti-Clauberg test, immature female rabbits received a subcutaneous injection of 5 μg estradiol in 10% ethanol/sesame oil daily for 6 consecutive days. On day 7, animals received progesterone by subcutaneous injection (160 μg/day) and the experimental compound in appropriate vehicle orally or subcutaneously for five consecutive days. One group of rabbits received progesterone only. Twenty-four hours after the last dose, all animals were sacrificed for removal of the uterus which was cleaned of all fat and connective tissue, weighed to the nearest 0.2 mg and placed in 10% neutral buffered formalin for subsequent histological processing. Five micron sections stained with hematoxylin and eosin were evaluated microscopically for the degree of endometrial glandular proliferation. The percent inhibition of endometrial proliferation at each dose level of the test compound was derived by comparison with progesterone-stimulated animals alone. The data presented in Table 1 (rabbit Biol. Act.) reflects the average of the results obtained for each compound by the anti-McGinty and anti-Clauberg assays relative to CDB-2914.

[4] = Serum progesterone by ELISA; assay type: in vivo, rat
Protocol: as §2, §3

[5] = biological target: T2, glucocorticoid receptor (rbGR) (Oryctolagus cuniculus, UniProt P59667); assay: Glucocorticoid receptor binding; set-up: species or system rabbit
T2 construct: cytosol containing PR or GR were prepared in TEGMD buffer; from tissue; host or cells: thymus of estradiol-primed immature rabbits (cytosol)
T2 sequence (P59667 1-772): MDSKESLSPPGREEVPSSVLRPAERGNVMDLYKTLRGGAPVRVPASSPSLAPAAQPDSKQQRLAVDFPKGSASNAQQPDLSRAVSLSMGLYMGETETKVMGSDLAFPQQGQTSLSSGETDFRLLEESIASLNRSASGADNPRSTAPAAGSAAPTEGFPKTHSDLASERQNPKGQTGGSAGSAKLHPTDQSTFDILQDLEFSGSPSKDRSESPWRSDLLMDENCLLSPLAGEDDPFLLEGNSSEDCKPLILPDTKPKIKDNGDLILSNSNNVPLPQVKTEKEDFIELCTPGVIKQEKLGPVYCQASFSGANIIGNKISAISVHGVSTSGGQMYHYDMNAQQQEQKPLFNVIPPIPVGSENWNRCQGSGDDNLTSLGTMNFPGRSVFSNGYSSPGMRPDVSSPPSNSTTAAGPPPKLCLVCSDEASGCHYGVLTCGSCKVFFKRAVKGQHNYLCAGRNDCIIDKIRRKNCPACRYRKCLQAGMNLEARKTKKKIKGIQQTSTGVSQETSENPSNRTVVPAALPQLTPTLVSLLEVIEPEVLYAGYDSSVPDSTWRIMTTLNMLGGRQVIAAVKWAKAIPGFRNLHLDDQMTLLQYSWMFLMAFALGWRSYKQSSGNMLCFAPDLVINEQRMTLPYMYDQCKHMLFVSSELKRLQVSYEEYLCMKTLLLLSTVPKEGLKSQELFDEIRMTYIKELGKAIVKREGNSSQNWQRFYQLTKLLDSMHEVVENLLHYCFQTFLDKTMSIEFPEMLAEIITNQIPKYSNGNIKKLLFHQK
Protocol: as §1, with “Briefly, cytosol containing PR or GR were prepared in TEGMD buffer (10 mM Tris, pH 7.2, 1.5 mM EDTA, 0.2 mM sodium molybdate, 10% glycerol, 1 mM DTT) from uterus or thymus, respectively, of estradiol-primed immature rabbits.” left out
C. Supernatants containing the [3H]-steroid receptor complexes were decanted into vials containing 4 ml Optifluor (Packard Instrument Co.), vortexed, equilibrated in a liquid scintillation counter for 30 minutes and then counted for 2 minutes. […] The standards for the PR and GR assays were unlabeled progesterone and dexamethasone, respectively.

Structure (SMILES)	anti-glucocorticoid activity (in words) (glucocorticoid receptor)	rbPR/rbGR (ratio of the relative binding affinities for rbPR and rbGR) [1]	serum cortisol versus control group (in words) (Serum cortisol by ELISA)	estrogenic, androgenic, anti-estrogenic, and anti-androgenic activities (in words) [2]	estrogen levels in human females (in words) [3]	antiprogestin activity in the rabbit uterus (in words) (rabbit uterus)	serum progesterone versus before treatment (in words) ([4]; 10 mg/kg)	Serum Progesterone, Before TX (mean) ([4]; 10 mg/kg group, before treatment) [ng/mL]	Serum Progesterone, During TX (mean) ([4]; 10 mg/kg, after 21 days of treatment) [ng/mL]	Serum Progesterone, After TX (mean) ([4]; 10 mg/kg, at sacrifice 2-4 days after the last s.c. injection) [ng/mL]	anti-glucocorticoid receptor activity / glucocorticoid receptor binding (in words) [5]
CNc1ccc([C@H]2C[C@@]3(C)[C@@H](CC[C@]3(OC(C)=O)C(=O)COC)[C@@H]3CCC4=CC(=O)CCC4=C32)cc1 [CDB-4453, 21-methoxy-17α-acetoxy-11β-(4-N-methylaminophenyl)-19-norpregna-4,9-diene-3,20-dione]	even lower anti-glucocorticoid activity than its parent	–	–	–	–	–	–	–	–	–	–
CC(=O)OCC(=O)[C@@]1(OC(C)=O)CCC2C3CCC4=CC(=O)CCC4=C3C(c3ccc(N(C)C)cc3)C[C@@]21C (stereo partly drawn) [CDB-4059, 21-acetoxy-17α-acetoxy-11β-(4 N,N-dimethylaminophenyl)-19-norpregna-4,9-diene-3,20-dione]	–	1.89	significantly higher levels of serum cortisol	lack estrogenic, androgenic, anti-estrogenic, and anti-androgenic activities	maintain estrogen levels in the normal range	strong antiprogestin activity	did not raise serum progesterone levels	57	58	47	minimal anti-glucocorticoid receptor activity
